Measurements as given in patent publication US11617708B2, “Cosmetic composition capable of strengthening epidermal tight junctions for the prevention and/or treatment of atopic dermatitis” (NAOS INSTITUTE OF LIFE SCIENCE, priority 2020, dated 2023).

System: claudin-1
Test: Expression of claudin-1 by in situ immunolabelling in an in vitro cell model of atopic dermatitis (calcium-differentiated keratinocytes inhibited by alarmins)
Type: cell-based, human
Protocol: • cell type: normal human epidermal keratinocytes (NHEK; reference: Bioalternatives K34 1), used at 3rd passage—culture conditions: 37° C., 5% CO2 • culture medium: Keratinocyte-SFM complemented with Epidermal Growth Factor (or EGF) at a concentration of 0.25 ng/mL, pituitary extract (PE) at a concentration of 25 μg/mL and gentamycin at a concentration of 25 μg/mL • assay medium used for this example: Keratinocyte-SFM complemented with gentamycin at a concentration of 25 μg/mL. […]
For each condition, the analysis was carried out from 30 image quantifications (n=30) except for the control conditions produced from 60 image quantifications (n=60). A first evaluation of the results was carried out by taking all of the quantifications into account, then a second solely with the results with replicated cultures, i.e. with 3 replications (n=3), except for the control conditions which were carried out with 6 replications (n=6). […]
Labelling was quantified by measuring the intensity of fluorescence of the proteins with respect to the total number of cells identified by staining with bis-benzimide (integration of digital data by the Developer Toolbox 1.5 software, GE Health Care).
The intergroup comparisons were carried out with the aid of the bilateral unpaired Student t-assay. […] However, for n<5, the calculated data were provided by way of indication only. […]

SMILES	effect on the expression of claudin-1 (% with respect to T+, inhibited control = 100%) (NHEK differentiated with CaCl2 0.75 mM, compounds 1 h before alarmins (histamine 50 μM, IL-33 100 ng/mL, IL-1β 100 ng/mL), 72 h, arginine 0.02-0.2%, glycosylceramides 0.0003-0.003%, FIG. 1)	expression of claudin-1 after differentiation with CaCl2 (NHEK, CaCl2 0.75 mM, without alarmins, versus not stimulated/not differentiated control)
N=C(N)NCCC[C@H](N)C(=O)O [arginine]	significantly reversed the inhibiting effect of the mixture of alarmins on the expression of claudin-1	
[Ca+2].[Cl-].[Cl-] [CaCl2]		induced an increase in the expression of the analysed tight junctions protein (claudin-1)
